The values that follow come from patent US20160199500A1, “COMPOSITIONS COMPRISING VITAMIN B12 AND INTRINSIC FACTOR AND METHODS OF USE THEREOF” (Syracuse University, priority 2013, published 2016).

The conditions of assay [1]: pre injection of 50 mg two minutes before an 125I-labeled conjugate, mice; cited from earlier work.
Assay [2] relates to BeWo cells (cubilin receptor). The experiment in a line: Uptake and internalization in BeWo cells by confocal microscopy. In kind it is cell-based. The following applies: conjugates incubated with IF.
The next assay deals with cubilin (CUBN) (Homo sapiens, UniProt O60494+P27352). The following applies: binds CUB domains 5-8, Ca2+ dependent; read-out: Kd of IF-B12 for cubilin; cited from earlier work.
Sequence of cubilin (CUBN) (O60494 36-3623, species assumed): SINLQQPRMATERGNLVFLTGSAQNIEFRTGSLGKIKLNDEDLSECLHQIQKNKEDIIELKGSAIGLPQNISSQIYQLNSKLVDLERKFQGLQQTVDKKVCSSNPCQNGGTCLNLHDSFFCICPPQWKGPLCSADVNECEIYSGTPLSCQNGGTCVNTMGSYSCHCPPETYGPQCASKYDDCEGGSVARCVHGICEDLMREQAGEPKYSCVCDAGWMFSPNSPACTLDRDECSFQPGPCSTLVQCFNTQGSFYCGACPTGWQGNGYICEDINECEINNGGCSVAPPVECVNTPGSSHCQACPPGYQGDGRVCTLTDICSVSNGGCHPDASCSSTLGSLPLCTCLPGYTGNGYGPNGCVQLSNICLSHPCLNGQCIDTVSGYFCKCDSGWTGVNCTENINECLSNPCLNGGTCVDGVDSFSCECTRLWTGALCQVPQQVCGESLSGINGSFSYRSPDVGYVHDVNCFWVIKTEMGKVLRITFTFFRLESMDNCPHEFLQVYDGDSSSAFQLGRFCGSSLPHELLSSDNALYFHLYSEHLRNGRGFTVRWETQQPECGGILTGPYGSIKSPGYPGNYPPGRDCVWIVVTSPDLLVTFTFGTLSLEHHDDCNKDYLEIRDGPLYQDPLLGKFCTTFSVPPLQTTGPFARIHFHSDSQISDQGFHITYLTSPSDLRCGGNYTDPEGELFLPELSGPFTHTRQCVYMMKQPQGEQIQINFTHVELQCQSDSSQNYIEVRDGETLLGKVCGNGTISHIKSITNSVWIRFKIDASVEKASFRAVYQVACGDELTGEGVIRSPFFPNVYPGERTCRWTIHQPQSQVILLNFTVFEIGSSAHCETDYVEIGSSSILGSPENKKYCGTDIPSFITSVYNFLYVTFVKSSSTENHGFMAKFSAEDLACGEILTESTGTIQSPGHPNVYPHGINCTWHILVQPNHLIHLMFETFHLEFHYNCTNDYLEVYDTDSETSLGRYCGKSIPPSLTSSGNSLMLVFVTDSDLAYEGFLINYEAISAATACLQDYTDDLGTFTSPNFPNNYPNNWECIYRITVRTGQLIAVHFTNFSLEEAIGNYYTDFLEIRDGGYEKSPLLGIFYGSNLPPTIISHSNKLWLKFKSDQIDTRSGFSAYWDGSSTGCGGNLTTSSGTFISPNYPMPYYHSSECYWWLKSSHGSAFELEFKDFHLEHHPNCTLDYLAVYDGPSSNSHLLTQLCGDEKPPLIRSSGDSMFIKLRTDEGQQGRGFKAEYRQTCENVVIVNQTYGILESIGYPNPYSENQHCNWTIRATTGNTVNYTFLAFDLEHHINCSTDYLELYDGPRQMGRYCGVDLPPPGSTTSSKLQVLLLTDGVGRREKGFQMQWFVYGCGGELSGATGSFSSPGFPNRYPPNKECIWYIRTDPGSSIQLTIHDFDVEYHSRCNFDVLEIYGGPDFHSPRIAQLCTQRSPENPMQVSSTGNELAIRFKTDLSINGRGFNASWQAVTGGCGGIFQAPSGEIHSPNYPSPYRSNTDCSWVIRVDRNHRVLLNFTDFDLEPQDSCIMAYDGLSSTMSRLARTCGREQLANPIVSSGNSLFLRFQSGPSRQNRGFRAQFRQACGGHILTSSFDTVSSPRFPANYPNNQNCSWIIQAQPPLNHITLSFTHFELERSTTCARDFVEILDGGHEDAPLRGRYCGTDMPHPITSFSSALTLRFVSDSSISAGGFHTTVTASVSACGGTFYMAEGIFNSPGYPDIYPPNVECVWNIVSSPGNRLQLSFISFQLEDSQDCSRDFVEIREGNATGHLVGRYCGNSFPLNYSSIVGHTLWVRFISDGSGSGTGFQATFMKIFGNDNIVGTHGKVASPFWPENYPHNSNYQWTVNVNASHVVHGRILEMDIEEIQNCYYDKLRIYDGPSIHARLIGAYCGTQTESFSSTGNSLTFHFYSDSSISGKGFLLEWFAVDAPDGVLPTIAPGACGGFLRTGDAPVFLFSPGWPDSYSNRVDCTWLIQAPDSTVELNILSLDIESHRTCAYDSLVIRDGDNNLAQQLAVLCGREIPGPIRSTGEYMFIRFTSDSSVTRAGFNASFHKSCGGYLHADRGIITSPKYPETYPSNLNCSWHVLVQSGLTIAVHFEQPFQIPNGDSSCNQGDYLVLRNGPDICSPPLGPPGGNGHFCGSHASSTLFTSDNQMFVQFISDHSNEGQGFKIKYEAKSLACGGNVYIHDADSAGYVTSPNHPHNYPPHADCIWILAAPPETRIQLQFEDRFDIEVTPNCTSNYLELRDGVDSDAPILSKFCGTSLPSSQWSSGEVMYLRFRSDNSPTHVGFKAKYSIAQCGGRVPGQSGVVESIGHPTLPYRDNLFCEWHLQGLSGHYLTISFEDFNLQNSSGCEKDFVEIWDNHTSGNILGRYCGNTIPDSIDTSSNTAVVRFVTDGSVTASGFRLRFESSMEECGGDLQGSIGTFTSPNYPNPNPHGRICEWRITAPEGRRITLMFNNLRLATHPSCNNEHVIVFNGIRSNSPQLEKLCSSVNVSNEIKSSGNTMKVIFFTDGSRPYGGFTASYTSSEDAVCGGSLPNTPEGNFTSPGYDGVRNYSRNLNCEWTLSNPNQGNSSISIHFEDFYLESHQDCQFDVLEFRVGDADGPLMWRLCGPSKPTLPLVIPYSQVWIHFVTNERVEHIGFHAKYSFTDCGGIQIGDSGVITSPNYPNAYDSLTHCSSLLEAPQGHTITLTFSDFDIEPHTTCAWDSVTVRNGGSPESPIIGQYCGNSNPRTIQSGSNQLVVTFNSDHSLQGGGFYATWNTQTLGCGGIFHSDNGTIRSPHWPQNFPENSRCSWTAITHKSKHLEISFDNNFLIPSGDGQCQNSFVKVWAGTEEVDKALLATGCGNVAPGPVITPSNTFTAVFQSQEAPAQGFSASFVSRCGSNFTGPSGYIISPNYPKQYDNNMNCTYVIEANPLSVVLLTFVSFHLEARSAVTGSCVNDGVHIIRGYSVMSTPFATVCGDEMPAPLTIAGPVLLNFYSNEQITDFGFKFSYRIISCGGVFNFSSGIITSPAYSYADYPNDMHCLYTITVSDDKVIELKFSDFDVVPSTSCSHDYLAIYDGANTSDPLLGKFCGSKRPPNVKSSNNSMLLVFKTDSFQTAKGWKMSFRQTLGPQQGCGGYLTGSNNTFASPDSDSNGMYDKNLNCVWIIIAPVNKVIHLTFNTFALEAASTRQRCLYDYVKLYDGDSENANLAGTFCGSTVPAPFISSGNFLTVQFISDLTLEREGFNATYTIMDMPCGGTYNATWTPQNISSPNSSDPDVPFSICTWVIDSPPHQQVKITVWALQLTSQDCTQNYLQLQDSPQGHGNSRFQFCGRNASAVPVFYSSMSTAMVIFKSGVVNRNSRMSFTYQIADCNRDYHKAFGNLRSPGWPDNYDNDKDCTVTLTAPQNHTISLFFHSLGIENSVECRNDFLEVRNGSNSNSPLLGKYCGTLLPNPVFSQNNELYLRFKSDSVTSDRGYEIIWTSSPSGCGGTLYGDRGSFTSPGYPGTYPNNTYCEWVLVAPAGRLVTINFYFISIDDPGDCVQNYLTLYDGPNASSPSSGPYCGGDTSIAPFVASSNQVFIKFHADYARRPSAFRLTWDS
Sequence of cubilin (CUBN) (P27352 19-417, species assumed): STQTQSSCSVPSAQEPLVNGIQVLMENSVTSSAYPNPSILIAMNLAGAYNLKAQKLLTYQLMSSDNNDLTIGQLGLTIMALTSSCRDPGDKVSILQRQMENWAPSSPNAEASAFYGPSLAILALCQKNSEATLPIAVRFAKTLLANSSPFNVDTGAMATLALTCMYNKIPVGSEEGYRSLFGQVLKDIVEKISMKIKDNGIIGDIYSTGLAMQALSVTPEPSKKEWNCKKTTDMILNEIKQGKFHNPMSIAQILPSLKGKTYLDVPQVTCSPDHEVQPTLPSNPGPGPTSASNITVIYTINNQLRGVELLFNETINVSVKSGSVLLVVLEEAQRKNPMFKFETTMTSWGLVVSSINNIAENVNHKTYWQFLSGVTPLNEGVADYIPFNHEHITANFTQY

Consider `NCCCC[C@H](N)C(=O)O` [1-lysine, L-lysine], for which, in assay [1], the “decrease of kidney uptake” value is recorded as “approximately 95%”.

For the compound “IF405: intrinsic factor tagged with Alexa Fluor 405”, the “binding, uptake or internalization in BeWo cells” value in assay [2] was “shows uptake”.

On to “IF-B12: complex of intrinsic factor, a 50 kDa protein, bound to B12”, for which the Kd with cubilin (CUBN) was around 5 nM.
